Laboratory results: publication PMC11352469, “Comprehensive Analysis of Kisspeptin Signaling: Effects on Cellular Dynamics in Cervical Cancer” (Biomolecules, 2024)
Residues, ends and D or L forms follow the SMILES beside them.

Tests used:
HEK293T cells = assay: Cytotoxicity MTT assay, HEK293T; format: cell-based, human; conditions: 48 h
Experimental: (§1) Human cervical adenocarcinoma (HeLa) cells (cat# CRM-CCL-2) were obtained from the American Type Culture Collection (ATCC, Manassas, VA, USA). Human breast adenocarcinoma (MCF7) cells, Human prostate adenocarcinoma (PC3) cells, Human gastric adenocarcinoma (AGS) cells and Human Embryonic Kidney cells (HEK293T) were kindly provided by the Universidad Industrial de Santander. HeLa, MCF7, and HEK293T cells were cultured in DMEM medium supplemented with 10% FBS (fetal bovine serum), 1% penicillin/streptomycin. PC3 and AGS cells were cultured in RPMI medium supplemented with 10% FBS, 1% penicillin/streptomycin. All cells were maintained at 37 °C and 5% CO2.
(§2) 15,000 cells per well were plated in 96-well plates (Greiner, Fisher Scientific, Waltham, MA, USA) using a fully complemented medium, and incubated at 37 °C. Following a 24 h period, cells underwent serum starvation before being treated with KP10 and its analogs at concentrations of 10, 100, 250, and 500 nM for 48 h. Subsequently, each well received 100 µL of MTT solution (0.5 mg/mL), and the plates were incubated at 37 °C for 3 h. After adding the MTT solvent and further incubation for 15 min, the resultant absorbance was measured at 590 nm using a BioTech RT-2100C microplate reader. Data analysis was performed using Prism 8.0 software (GraphPad).

HeLa cells = assay: Cytotoxicity MTT assay, HeLa; format: cell-based, human; conditions: 48 h
Experimental: as §1, §2

PC3 cells = assay: Cytotoxicity MTT assay, PC3; format: cell-based, human; conditions: 48 h
Experimental: as §1, §2

kisspeptin receptor [1] = target: T1, kisspeptin receptor (Homo sapiens, UniProt Q969F8); assay: BRET assay, Gz pathway; format: cell-based; parameters: expressed in transfected cells; host or cells: HeLa cells, transient transfection with PEI; conditions: for Δ(logτ/KA) bias factor, Gαz pathway: operational model, KP10 as reference
Description: The Bioluminescence Resonance Energy Transfer (BRET) assay was developed as described before. Briefly, HeLa cells were transiently transfected with these plasmids encoding for the GPCR, Gα subunit, the G protein effectors tagged with the BRET donor (RlucII), and the plasma membrane anchor (the CAAX motif from KRas, which includes a prenylation and a polybasic domain) fused to the BRET acceptor rGFP using Polietilendiimine (PEI) as described in Avet et al.. Fourty-eight hours post-transfection, cells were incubated with the coelenterazine substrate for Renilla luciferase Prolume Purple, stimulated with kisspeptin receptor agonists for 10 min and BRET signals were measured using a dual-filter luminometer (SPARK, Tecan Life Sciences, Männedorf, Switzerland). BRET ratios were calculated by dividing the acceptor emission by the donor emission, providing a quantitative measure for […]. Data were analyzed using Prism 8.0 (GraphPad) to determine interaction dynamics under various experimental conditions. The bias factor for the kisspeptin analogs was calculated using the operational model of agonism as described by Kenakin [31]. Emax and EC50 values were determined for each signaling pathway (e.g., G protein activation, β-arrestin recruitment). The data were then fitted to the operational model to estimate transduction coefficients (τ). The bias factor (ΔLog(τ/KA)) was calculated by comparing the τ/KA values for each pathway relative to a reference pathway. This method quantifies signaling bias by evaluating relative efficacy and potency across pathways. Statistical significance of the observed bias was assessed to ensure the differences were not due to random variation. All calculations and analyses were performed using GraphPad Prism software (GraphPad, San Diego, CA, USA).

MCF7 cells = assay: Cytotoxicity MTT assay, MCF7; format: cell-based, human; conditions: 48 h
Experimental: as §1, §2

kisspeptin receptor [2] = target: T1, kisspeptin receptor; assay: BRET assay, G15 pathway; format: cell-based; parameters: expressed in transfected cells; host or cells: HeLa cells, transient transfection with PEI; conditions: for EC50: read-out: pEC50 G15 (converted)
Description: (§3) The Bioluminescence Resonance Energy Transfer (BRET) assay was developed as described before. Briefly, HeLa cells were transiently transfected with these plasmids encoding for the GPCR, Gα subunit, the G protein effectors tagged with the BRET donor (RlucII), and the plasma membrane anchor (the CAAX motif from KRas, which includes a prenylation and a polybasic domain) fused to the BRET acceptor rGFP using Polietilendiimine (PEI) as described in Avet et al.. Fourty-eight hours post-transfection, cells were incubated with the coelenterazine substrate for Renilla luciferase Prolume Purple, stimulated with kisspeptin receptor agonists for 10 min and BRET signals were measured using a dual-filter luminometer (SPARK, Tecan Life Sciences, Männedorf, Switzerland). BRET ratios were calculated by dividing the acceptor emission by the donor emission, providing a quantitative measure for […]. Data were analyzed using Prism 8.0 (GraphPad) to determine interaction dynamics under various experimental conditions.

kisspeptin receptor [3] = target: T1, kisspeptin receptor; assay: BRET assay, β-arrestin2 recruitment; format: cell-based; parameters: expressed in transfected cells; host or cells: HeLa cells, transient transfection with PEI
Description: as §3

kisspeptin receptor [4] = target: T1, kisspeptin receptor; assay: BRET assay, β-arrestin1 recruitment; format: cell-based; parameters: expressed in transfected cells; host or cells: HeLa cells, transient transfection with PEI
Description: as §3

kisspeptin receptor [5] = target: T1, kisspeptin receptor; assay: BRET assay, G14 pathway; format: cell-based; parameters: expressed in transfected cells; host or cells: HeLa cells, transient transfection with PEI; conditions: for EC50: read-out: pEC50 G14 (converted)
Description: as §3

kisspeptin receptor [6] = target: T1, kisspeptin receptor; assay: BRET assay, G11 pathway; format: cell-based; parameters: expressed in transfected cells; host or cells: HeLa cells, transient transfection with PEI; conditions: for EC50: read-out: pEC50 G11 (converted)
Description: as §3

kisspeptin receptor [7] = target: T1, kisspeptin receptor; assay: BRET assay, Gq pathway; format: cell-based; parameters: expressed in transfected cells; host or cells: HeLa cells, transient transfection with PEI
Description: as §3

[8] = HeLa cells, Gz pathway, mean of 4 experiments, read-out: EC50(M) Gz
[9] = HeLa cells, Gz pathway, read-out: pEC50 Gz (converted)
[10] = HeLa cells, β-arrestin2 recruitment, read-out: pEC50 β-arrestin2 (converted)

T1 sequence (Q969F8 whole entry, the tested form may be a part): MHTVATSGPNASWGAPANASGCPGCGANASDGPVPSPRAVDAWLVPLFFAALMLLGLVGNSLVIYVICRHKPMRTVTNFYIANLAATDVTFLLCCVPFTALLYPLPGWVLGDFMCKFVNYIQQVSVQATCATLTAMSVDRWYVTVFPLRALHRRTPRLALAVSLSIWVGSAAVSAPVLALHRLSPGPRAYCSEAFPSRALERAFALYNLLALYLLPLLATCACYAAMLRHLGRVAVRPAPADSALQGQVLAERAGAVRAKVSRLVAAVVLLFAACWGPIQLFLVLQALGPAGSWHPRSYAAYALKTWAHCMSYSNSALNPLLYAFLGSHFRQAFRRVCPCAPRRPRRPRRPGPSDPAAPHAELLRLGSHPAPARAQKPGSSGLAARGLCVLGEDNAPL

| Molecule | pIC50 HEK293T (HEK293T cells) | pIC50 HeLa (HeLa cells) | pIC50 PC3 (PC3 cells) | EC50 (kisspeptin receptor [1]; [8]) [M] | EC50 (kisspeptin receptor [1]; [9]) [M] | Δ(logτ/KA) bias factor, Gαz pathway (kisspeptin receptor [1]; HeLa cells) | EC50 (kisspeptin receptor [2]; HeLa cells, G15 pathway) [µM] | EC50 (kisspeptin receptor [3]; [10]) [M] | EC50 (kisspeptin receptor [5]; HeLa cells, G14 pathway) [µM] | EC50 (kisspeptin receptor [6]; HeLa cells, G11 pathway) [µM] | EC50 (kisspeptin receptor [7]; HeLa cells, Gq pathway) [µM] | also measured |
| --- | --- | --- | --- | --- | --- | --- | --- | --- | --- | --- | --- | --- |
| Ala^1-KP10: Ala-Asn-Trp-Asn-Ser-Phe-Gly-Leu-Arg-Phe; KP10 Ala-scan analog (ANWNSFGLRF; printed: Ala-Asn-Trp-Asn-Ser-Phe-Gly-Leu-Arg-Phe) | 2.311 | 2.483 | 2.475 |  |  |  |  |  |  |  |  |  |
| CC(C)C[C@H](NC(=O)CNC(=O)[C@H](Cc1ccccc1)NC(=O)[C@H](CO)NC(=O)[C@H](CC(N)=O)NC(=O)[C@H](C)NC(=O)[C@H](CC(N)=O)NC(=O)[C@@H](N)Cc1ccc(O)cc1)C(=O)N[C@@H](CCCNC(=N)N)C(=O)N[C@@H](Cc1ccccc1)C(N)=O [Ala^3-KP10] (H-YNANSFGLRF-NH2; N-terminus assumed) |  |  |  | 6.46e-07 | 5.75e-07 | −0.7 | 0.135 | 1e-06 | 0.166 | 0.209 | 0.0851 | Emax (kisspeptin receptor [1]; HeLa cells, Gz pathway, KP10 = 100%): 94%; Fc Gz (kisspeptin receptor [1]; fold change of EC50 relative to KP10, Gz pathway): 3.96; pIC50 MCF7 (MCF7 cells): 2.624; Emax (kisspeptin receptor [2]; HeLa cells, G15 pathway, KP10 = 100%): 99.5%; Fc G15 (kisspeptin receptor [2]; fold change of EC50 relative to KP10, G15 pathway): 4.92; Emax (kisspeptin receptor [3]; HeLa cells, β-arrestin2 recruitment, KP10 = 100%): 63.9%; EC50 (kisspeptin receptor [3]; HeLa cells, β-arrestin2 recruitment, mean of 4 experiments, read-out: EC50(M) β-arrestin2): 1.43e-06 M; Fc β-arrestin2 (kisspeptin receptor [3]; fold change of EC50 relative to KP10, β-arrestin2): 3.82; Emax (kisspeptin receptor [4]; HeLa cells, β-arrestin1 recruitment, KP10 = 100%): 69%; EC50 (kisspeptin receptor [4]; HeLa cells, β-arrestin1 recruitment, mean of 4 experiments): 1.19 µM; Fc β-arrestin1 (kisspeptin receptor [4]; fold change of EC50 relative to KP10, β-arrestin1): 2.01; Emax (kisspeptin receptor [5]; HeLa cells, G14 pathway, KP10 = 100%): 100%; Fc G14 (kisspeptin receptor [5]; fold change of EC50 relative to KP10, G14 pathway): 4.28; Emax (kisspeptin receptor [6]; HeLa cells, G11 pathway, KP10 = 100%): 102%; Fc G11 (kisspeptin receptor [6]; fold change of EC50 relative to KP10, G11 pathway): 4.65; Emax (kisspeptin receptor [7]; HeLa cells, Gq pathway, KP10 = 100%): 107%; Fc Gq (kisspeptin receptor [7]; fold change of EC50 relative to KP10, Gq pathway): 5.76 |
| Ala^9-KP10: Tyr-Asn-Trp-Asn-Ser-Phe-Gly-Leu-Ala-Phe; KP10 Ala-scan analog (YNWNSFGLAF; printed: Tyr-Asn-Trp-Asn-Ser-Phe-Gly-Leu-Ala-Phe) |  | 2.429 | 2.295 |  |  |  |  |  |  |  |  |  |
| CC(C)C[C@H](NC(=O)CNC(=O)[C@H](Cc1ccccc1)NC(=O)[C@H](CO)NC(=O)[C@H](CC(N)=O)NC(=O)[C@H](Cc1c[nH]c2ccccc12)NC(=O)[C@H](CC(N)=O)NC(=O)[C@@H](N)Cc1ccc(O)cc1)C(=O)N[C@@H](CCCN=C(N)N)C(=O)N[C@@H](Cc1ccccc1)C(N)=O [KP-10, kisspeptin-10, reference compound] | 2.489 |  | 2.678 | 1.63e-07 | 1.35e-07 | 0 | 0.0269 | 3.72e-07 | 0.0331 | 0.038 | 0.0135 |  |
